Measurements reported in US11360096B2, “Complex BRET technique for measuring biological interactions” (DUKE UNIVERSITY, priority 2019, dated 2022).

Tests used:
[1] = test system: Gαi:β-arrestin-2 complexes; test: Split luciferase Gαi-LgBiT:β-arrestin-2-smBiT complex formation in cells overexpressing V2R; assay type: cell-based, human
Method: (§1) HEK293T cells seeded in 6-well plates were co-transfected with 500 ng of smBiT tagged β-arrestin-2, and either 250 ng of LgBiT tagged receptor or 2000 ng of untagged receptor and varying concentrations of LgBiT Gα protein expression vector (most experiments were conducted between 50-200 ng of Gα plasmid) or 2000 ng of mKO tagged β-arrestin-2 and 500 ng of smBiT tagged V2R using a calcium phosphate protocol. Twenty-four hours post-transfection, cells were plated onto clear bottom, white-walled 96-well plates at 50,000-100,000 cells/well in “BRET media”—clear minimum essential medium (GIBCO) supplemented with 2% FBS, 10 mM HEPES, 1×GLUTAMAX™, and 1× Anti-Anti (GIBCO). […] For luminescence split luciferase studies, plates were read with a BioTek SYNERGY™ Neo2 plate reader set at 37° C. with a 485 nm emission filter. […] For split luciferase luminescence experiments, plates were read both before and after ligand treatment to calculate Δnet change in luminescence and subsequently normalized to vehicle treatment. For complex BRET experiments, plates were read on a Berthold Mithras LB940 using pre-warmed media and instrument at 37° C. using a standard Rluc emissions filter (480 nm) with a custom mKO 542 nm long-pass emission filter (Chroma Technology Co., Bellows Falls, Vt.). The BRET ratio was calculated by dividing the mKO signal by the luciferase signal.

[2] = target: T1, Angiotensin II type 1 receptor (AT1R) (Homo sapiens, UniProt P30556); test: TGF-α shedding assay of canonical G protein signaling at AT1R; assay type: cell-based; settings: four Gα-family proteins tested
T1 sequence (P30556 1-359): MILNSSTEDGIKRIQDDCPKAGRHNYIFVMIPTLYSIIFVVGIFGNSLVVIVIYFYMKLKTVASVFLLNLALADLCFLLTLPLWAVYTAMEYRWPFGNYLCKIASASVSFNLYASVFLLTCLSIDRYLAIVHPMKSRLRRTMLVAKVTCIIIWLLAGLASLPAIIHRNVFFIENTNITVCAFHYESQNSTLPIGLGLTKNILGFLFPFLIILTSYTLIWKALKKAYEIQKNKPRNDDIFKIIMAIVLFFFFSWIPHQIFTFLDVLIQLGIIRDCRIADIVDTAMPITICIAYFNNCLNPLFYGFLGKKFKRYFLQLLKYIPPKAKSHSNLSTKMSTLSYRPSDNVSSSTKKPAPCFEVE

[3] = test system: ERK1/2 phosphorylation; test: Phospho-ERK/total ERK immunoblot in 'triple G' HEK 293 cells overexpressing V2R; assay type: cell-based, human; settings: agonist treated
Method: Cells were serum starved for at least four hours, stimulated with the indicated ligand, subsequently washed 1× with ice-cold PBS, lysed in ice-cold RIPA buffer containing phosphatase and protease inhibitors (Phos-STOP (Roche), Complete EDTA free (Sigma)) and rotated for forty-five minutes, and cleared of insoluble debris by centrifugation at >12,000×g (4° C., 15 minutes), after which the supernatant was collected. Protein was resolved on SDS-10% polyacrylamide gels, transferred to nitrocellulose membranes, and immunoblotted with the indicated primary antibody overnight (4° C.). Phospho-ERK (Cell Signaling Technology, #9106) and total ERK (Millipore #06-182) were used to assess ERK activation. A1-CT antibody that recognizes both isoforms of β-arrestin was utilized, with protein loading assessed by alpha-tubulin (Sigma #T6074). Galpha i-1 (13533, Santa Cruz Biotechnology), Galpha q/11/14 (365906, Santa Cruz Biotechnology), Galpha 12 (515445, Santa Cruz Biotechnology), Galpha 13 (293424, Santa Cruz Biotechnology), Galpha s/olf (55545, Santa Cruz Biotechnology) antibodies were used to verify ‘Δ3G’ HEK 293 cells.
Horseradish peroxidase-conjugated polyclonal mouse anti-rabbit-IgG or anti-mouse-IgG were used as secondary antibodies. […] For quantification, phospho-protein signal was normalized to total protein signal using Image Lab (Bio-Rad) within the same blot.

[4] = target: T2, V2R:β-arrestin-2 complexes (Homo sapiens, UniProt P30518); test: Split luciferase V2R-LgBiT:β-arrestin-2-smBiT association; assay type: cell-based; settings: V2R or β2AR
T2 construct: 3xHA (N); expressed in transfected cells; host or cells: HEK293T
Method: as §1

[5] = test system: human pulmonary arterial smooth muscle cells (PASMCs); test: Wound-healing migration assay, primary human cells; assay type: cell-based
Method: Human pulmonary arterial smooth muscle cells (PASMCs) were isolated from human lungs from a de-identified health donor (International Institute for the Advancement of Medicine, Edison, N.J.) with Institutional Review Board approval. Human PASMCs were seeded into 24-well plates at a density of 1.5×10^4 cells per well in Human Smooth Muscle Cell Basal Medium supplemented with Human SMC Growth Supplement (Cell Application, Inc.). At 30% confluency, cells were transfected with 50 ng of control or β-arrestin-1 and β-arrestin-2 ON […]™ siRNA pools (Dharmacon, Inc.). When the cells reached 100% confluency, they were serum starved for 4 hours with 2 hrs of PTX (200 ng/mL) treatment. Scratches were made using small pipette tips. Cells were washed using DPBS and stimulated with basal smooth muscle cell medium containing 1 μM Angiotensin-II (Millipore Sigma) or 10 μM TRV120023 (Genscript USA Inc.). The wound closure was monitored using live-cell station Zeiss Axio Observer microscope (Carl Zeiss, Thornwood, N.Y.). The images were captured in real-time at 0 hour and for every hour until 16 hours. The initial edges of the scratch at 0 hour time point were marked and migrated distance 12-16 hrs afterwards was measured using METAMORPH® Premier software (Molecular Devices, San Jose, Calif.) at the Duke Light Microscopy Core Facility (Durham, N.C.).

[6] = test system: HEK 293 cells stably expressing AT1R; test: Wound-healing migration assay, immortalized cells; assay type: cell-based, human; settings: PTX pretreatment 200 ng/mL
Method: HEK 293T cells stably expressing the AT1R were utilized. Briefly, 70 μl of cell suspension at a concentration of 5×10^5 cells per mL was applied into each well of silicone inserts (Ibidi, Martinsried, Germany) on 24 well plate, and after 24 hrs incubation, the inserts were removed to create a wound field. The cells were incubated additionally for 12 hrs with 1 μM of TRV120023 and visualized with a Zeiss Axio Observer microscope (Carl Zeiss, Thornwood, N.Y.). Wound healing was then analyzed using ImageJ (NIH, Bethesda, Md.) wound healing tool macros.

## CCOc1ccc2c(c1)C1(CCC(OCCN3CCOCC3)CC1)C(=O)N2S(=O)(=O)c1ccc(C(=O)NC(C)(C)C)cc1OC (stereo not shown) [SR121463]
[1]; HEK 293 cells overexpressing V2R, pretreatment 30 min, 10 uM
  Gαi:β-arrestin complex formation after antagonist pretreatment: prevented formation of Gαi:β-arrestin complexes

## Angiotensin II [AngII]
[2]
  Canonical G protein signaling at AT1R: canonically signals through both Gαq and Gαi

## pertussis toxin
[3]
  ERK phosphorylation after pertussis toxin pretreatment: abrogated, but did not eliminate, ERK phosphorylation
[4]
  Effect of pertussis toxin pretreatment on β-arrestin recruitment to receptor: did not affect β-arrestin recruitment to either the V2R or β2AR
[5]
  Pertussis toxin sensitivity of migration towards TRV120023: pertussis toxin sensitive
[1]; pertussis toxin pretreatment
  Sensitivity of the Gαi:β-arrestin interaction to pertussis toxin: partially sensitive to pertussis toxin
[6]
  Reduction of TRV120023-mediated migration by pertussis toxin pretreatment: ~50%
